Data set [1] deals with ZIKV human strain PRVABC59. As to the kind of experiment: Plaque assay, inhibition of ZIKV infection (strain PRVABC59). Type of data set: cell-based. Particulars: Zika virus, Vero C1008; plaque assay, Vero E6 cells, human strain; read-out: IC50 PRVABC59. As to the method: (§1) After removal of the unbound compounds by centrifugation (after addition of 3% PEG-6000), ZIKV was incubated with Vero E6 cells in 24-well plates at 37°C for 1 h. The cells were then washed with PBS, overlaid with DMEM containing 1% carboxymethyl cellulose and 2% FBS, and cultured at 37°C for 4–5 days, followed by being stained with 0.5% crystal violet. […] Plaques in each well were calculated, and IC50 of compounds for each compound was calculated using the CalcuSyn computer program.

For data set [2], the system named is ZIKV human strain R103451. The data set is described as follows: Lethal ZIKV challenge in adult Ifnar1−/− mice, survival and weight. The format is in vivo. As to the method: (§2) Briefly, 7–8-week-old male mice were used, and two separate experiments were performed. […] These mice were i.p. infected with ZIKV (human strain R103451, 200 PFU/mouse) and observed daily for weight changes and survival until 21 dpi. […] Five days later, these mice were sacrificed, and their tissues, including the heart, testis, eye, kidney, and brain, were collected for detection of viral titers by plaque assay, or apoptosis by immunofluorescence staining. Mice losing 20% of initial weight with severe symptoms, including hind limb weakness and paralysis, or 25% of initial weight, were humanely euthanized with an overdose isoflurane in a Bell Jar, followed by cervical dislocation.

Data set [3] can be described thus: Safety profile in pregnant Ifnar1−/− mice and pups. The format is in vivo. The protocol:
Briefly, groups of 5 pregnant mice (8–12-week-old, E12-14) were i.p. injected with ST087010 (20 or 40 mg/kg of body weight, 200 μl/mouse), or DMSO (negative control), daily for 4 continuous days.

Data set [4] is described as follows: in vitro. Type of data set: cell-based. To be noted: rhesus monkey. The protocol: (§3) Briefly, compounds at 2-fold serial dilutions were added to the respective cells (2.0×10^4/well) pre-seeded in 96-well plates. The cells were cultured at 37°C in the presence of 5% CO2 for 3 days, […] incubated with CCK8 solution, followed by measurement of absorbance at 450 nm (A450 value), using a microplate reader (Infinite F200PRO, Tecan, Morrisville, NC, USA). CC50 of compounds was calculated using the CalcuSyn program.

The subject of data set [5] is DENV-1-V1792. The data set is described as follows: Plaque assay, inhibition of DENV-1 infection in LLC-MK2 cells. Particulars: Dengue virus, DENV1. The format is cell-based.
Data set [6] deals with Vero E6 cells. As to the kind of experiment: Cytotoxicity, Cell Counting Kit-8, Vero E6 cells. The format is cell-based. To be noted: African green monkey, 3 days. As to the method: as §3
Data set [7] in a line: Cytotoxicity, Cell Counting Kit-8, Vero E6 cells. Particulars: African green monkey, CC50 Vero E6. The format is cell-based. As to the method: as §3
For orientation: Tetrazolium assays rely on reduction of a dye to a coloured formazan, in cell work by metabolically active cells.

The subject of data set [8] is ZIKV human strain PAN2016. As to the kind of experiment: ZIKV challenge in adult Ifnar1−/− mice, tissue viral titers and immunofluorescence. Particulars: 5 dpi. Type of data set: in vivo. The protocol: as §2
Plaque assay was used to detect viral titers in ZIKV-infected tissues. Briefly, tissues were homogenized with cold culture medium (DMEM + 2% FBS) and then centrifuged (2000 g at 4°C for 10 min). Supernatants were serially diluted to infect Vero E6 cells in 24-well plates. ZIKV titers in tissues were measured from ~40 mg of samples; thus, the detection limit was about 25 PFU/g of tissues.
(§4) Immunofluorescence staining was carried out to detect ZIKV and caspase-3 signals in ZIKV-infected mouse tissues. Briefly, tissues were fixed in 4% formaldehyde, embedded in paraffin, and sectioned. The tissue sections were deparaffinized, fixed, and permed using the FIX and PERM Cell Permeabilization Kit (Thermo Fisher Scientific, Waltham, MA, USA). After blocking with 5% BSA, the tissue slides were incubated at 37°C 2 h with ZIKV EDIII-specific human mAb (ZV-67, 1:100, Absolute Antibody, Boston, MA, USA), or rabbit anti-active caspase-3 antibody (1:100, Abcam). The slides were washed with PBS and incubated for 30 min with anti-human FITC antibody (1:100, for ZIKV), or anti-rabbit Alexa Fluor 647 antibody (1:100, for caspase-3). The slides were then counterstained for nuclei, using DAPI (300 nM, Thermo Fisher Scientific, Waltham, MA, USA) for 5 min, and mounted in VectaMount Permanent Mounting Medium (Vector Laboratories, CA, USA). The slides were analyzed using a confocal microscope (Zeiss LSM 880) and ZEN software, and fluorescent signals were quantified by ImageJ software.

For data set [9], the system named is ZIKV rhesus macaque strain MR 766. The data set is described as follows: Plaque assay, inhibition of ZIKV infection (strain MR 766). The format is cell-based. Particulars: Zika virus, Vero C1008; plaque assay, Vero E6 cells, rhesus strain; read-out: IC50 MR 766. As to the method:
as §1

Data set [10] concerns ZIKV human strain R116265. As to the kind of experiment: Plaque assay, inhibition of ZIKV infection (strain R116265). Type of data set: cell-based. Particulars: Zika virus, Vero C1008, Vero E6 cells. As to the method: as §1
The subject of data set [11] is ZIKV human strain R116265. As to the kind of experiment: ZIKV vertical transmission in pregnant Ifnar1−/− mice. Type of data set: in vivo. To be noted: 5 dpi. As to the method:
Briefly, groups of 5 pregnant mice (10–12-week-old, E12-14) were i.p. injected with ST087010 (20 mg/kg of body weight, 200 μl/mouse), or DMSO (negative control), 12 h before and 6, 24, and 48 h after i.p. infection with ZIKV (human strain R116265, 10^3 PFU). Five days post-infection, mice were sacrificed; viral titers were assessed using plaque assay in the sera, placenta, fetal brain, and amniotic fluid, and uteri and fetuses were assessed for morphological and size changes. The placenta was also assessed for apoptosis and viral replication by immunofluorescence staining, as described below.
as §4

[12] abbreviates: immunofluorescence, compared to DMSO.

As a reminder, the IC50 is the concentration at which inhibition is half-maximal. The CC50 is the concentration giving 50% cytotoxicity.

As for `Cc1cc2c(C(C)C)c(O)c(O)c(/C=N/n3c(=O)[nH][nH]c3=O)c2c(O)c1-c1c(C)cc2c(C(C)C)c(O)c(O)c(/C=N/n3c(=O)[nH][nH]c3=O)c2c1O` [ST087010], the IC50 came to 2.4 µM in data set [1], 3.01 ± 0.11 µM in data set [5], 3.5 µM in [9] and 2.9 µM in data set [10]. In data set [2] (20 mg/kg i.p. 12 h before and 6, 24, 48 h post-infection, ZIKV R103451 200 PFU, observed 21 days), the “Mice protected from death (survival)” value stood at 50%. Moreover, the Weight loss entry in data set [2] (20 mg/kg i.p., ZIKV R103451 200 PFU, ST087010 figure during 6–12 dpi) was “less than 25%”. For the same molecule, the “Body weight relative to weight before the virus infection” value in [2] (20 mg/kg i.p., ZIKV R103451, until 21 dpi) is listed as 85%. For the same molecule, the “Histopathology of liver, spleen, kidney, and brain of mothers and pups” value in data set [3] (20 or 40 mg/kg, compared to DMSO) was “did not present pathological changes”. Also, in data set [3] (low and high doses (20 and 40 mg/kg)), the “Inflammation or cell infiltration in tissues” value is reported as “no inflammation or cell infiltration”. In data set [3] (pregnant mice, 20 mg/kg, 1 day after injection), the “Serum ALT and creatinine levels vs DMSO” value is “no significant difference”. For the same molecule, the “Serum ALT and creatinine levels” value in data set [3] (pregnant mice, 20 or 40 mg/kg, before injection and 4 h, 3 or 5 days after last injection) is listed as “no significant differences”. Moreover, the CC50 at 3 days in data set [4] was determined as 47.2 ± 1.35 µM; in data set [7], 49.6 µM. In data set [6], this molecule had a CC50 of 49.6 ± 1.83 µM. The “Viral titers in the heart, testis, eye, kidney, and brain” value in data set [8] (20 mg/kg i.p., ZIKV PAN2016 200 PFU, compared to gossypol or DMSO-treated mice) is reported as “significantly reduced”. Further, the “ZIKV+ signals in eye and testis tissues” value in data set [8] (immunofluorescence) is “undetectable”. Also, the “Caspase-3 staining in eye and testis tissues” value in data set [8] (setting [12]) is “undetectable, or diminished”. Also, in data set [11] (setting [12]), the “Staining of ZIKV+ or caspase-3 signals in placental tissues” value is given as “undetectable, or diminished”. In addition, the “Viral titers in sera, placenta, fetal brain, and amniotic fluid” value in data set [11] (pregnant mice, 20 mg/kg i.p., ZIKV R116265 10^3 PFU, compared to DMSO) is reported as “significantly reduced”. Also, the Condition of fetuses result in data set [11] (pregnant mice, 20 mg/kg i.p., ZIKV R116265) is listed as “all in good condition”.

Values taken from article PMC9202104 (BMC Biology, 2022).
